Assay [1] deals with T1, Kappa-type opioid receptor (Homo sapiens, UniProt P41145). Format: functional.
For another assay, the system named is INS1. The assay can be described thus: beta cell apoptosis inhibitors, cytokine rescue, dose response, luminescence, retest (AID 449756).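 Note: cell death triggered by IL-1 beta plus TNF-alpha plus IFN-gamma mixture; protective hits raise ATP signal compared with cytokine alone wells.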 Format: functional, cell-based. Conditions: Rattus norvegicus.
Assay [2] deals with HEK293. The assay can be described thus: cells. The class given is functional, cell-based. Conditions: Homo sapiens.
Assay [3] in a line: cytotoxicity toward DRD oncogenic fibroblasts, dose response, cell-based, non-viral oncogenic, luminescence (AID 1934). The class given is functional. Conditions: Homo sapiens.
The next assay has as its target Beta-galactosidase (Escherichia coli, UniProt Q8VNN2). Format: functional.
Assay [4] concerns HEK293. In words: cells. The conditions noted are these: Homo sapiens. The class given is functional, cell-based. This is another data set of the same source.
In assay [5] the target is T2, Serine/threonine-protein phosphatase (Candida dubliniensis (strain CD36 / CBS 7987 / NCPF 3949 / NRRLY-17841) (Yeast), UniProt B9W6M3).
T2 sequence (B9W6M3 whole entry): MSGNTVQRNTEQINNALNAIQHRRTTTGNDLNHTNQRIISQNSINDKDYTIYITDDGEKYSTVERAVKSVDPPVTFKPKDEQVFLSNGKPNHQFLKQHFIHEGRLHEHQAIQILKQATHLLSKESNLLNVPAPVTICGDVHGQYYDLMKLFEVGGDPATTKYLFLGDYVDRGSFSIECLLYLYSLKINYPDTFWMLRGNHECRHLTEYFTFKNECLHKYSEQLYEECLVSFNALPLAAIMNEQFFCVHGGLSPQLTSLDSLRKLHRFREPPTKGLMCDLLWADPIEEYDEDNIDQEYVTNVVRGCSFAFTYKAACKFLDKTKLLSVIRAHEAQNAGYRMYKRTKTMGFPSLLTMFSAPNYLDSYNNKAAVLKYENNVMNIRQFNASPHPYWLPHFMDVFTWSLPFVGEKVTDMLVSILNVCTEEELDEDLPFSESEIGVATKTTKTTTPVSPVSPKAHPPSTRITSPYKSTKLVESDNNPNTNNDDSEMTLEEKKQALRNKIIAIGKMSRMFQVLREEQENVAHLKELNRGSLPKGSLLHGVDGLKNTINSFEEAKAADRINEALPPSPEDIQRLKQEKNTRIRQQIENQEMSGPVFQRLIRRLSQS
In words: calcineurin pathway inhibitors in yeast reporter, dose response, S. cerevisiae, CDRE-lacZ, luminescence, secondary (AID 2388).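 Note: yeast reporter cells carrying a calcineurin-responsive lacZ construct stimulated with calcium chloride; luminescent beta-galactosidase reporter signal in whole cells rather than isolated phosphatase activity; potency for inhibition where a drop in reporter signal means calcineurin blockade.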 The class given is functional, cell-based.

The test system of assay [6] is BJ. In words: cytotoxicity toward BJ-TERT fibroblasts, dose response, cell-based, RAS-independent, luminescence (AID 1933). Conditions: Homo sapiens. Format: functional.
Assay [7] has as its target Nucleotide-binding oligomerization domain-containing protein 2 (Homo sapiens, UniProt Q9HC29). The assay can be described thus: NOD2 signaling inhibitors, cell-based, luminescence, uHTS, HEK293 (AID 1566). Format: functional.
Assay [8] has as its target Heat shock protein HSP 90-alpha (Homo sapiens, UniProt P07900). The class given is functional, organism-based.
The test system of assay [9] is BJ. The assay can be described thus: cytotoxicity toward BJ-TERT-LT-ST fibroblasts, dose response, cell-based, RAS-independent, luminescence (AID 1935).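 Note: BJ fibroblasts immortalized with TERT plus LT and ST oncogenes.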 Conditions: Homo sapiens. The class given is functional.
Assay [10] has as its system HEK293. The assay can be described thus: NOD1 signaling inhibitors, primary screen, cell-based, luminescence, uHTS (AID 1578). Format: functional. The conditions noted are these: Homo sapiens.
The test system of another assay is Streptococcus. The assay can be described thus: Group A Streptococcus viability loss, dose response, counter-screen for streptokinase expression inhibitor project, luminescence, BacTiterGlo (AID 1915).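 Note: potency for reduction of bacterial viability or growth.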 The class given is functional, organism-based. For orientation: A counterscreen serves to expose hits that act by an unwanted route or on another target.
For assay [11], the system named is BJ. The assay can be described thus: cells. The class given is functional, cell-based. The conditions noted are these: Homo sapiens.
In assay [12] the target is ATP-dependent molecular chaperone HSP82 (Candida albicans (strain WO-1) (Yeast), UniProt C4YTQ8). In words: loss of DOC-induced GRE-beta-galactosidase reporter signal, dose response, Hsp90 inhibitor project, S. cerevisiae, luminescence (AID 2400).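 Note: beta-galactosidase luminescence from glucocorticoid response element reporter as proxy for Hsp90 function; inhibitor potency where signal loss means Hsp90 inhibition.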 Format: functional, cell-based.
Assay [13] deals with Streptococcus sp. 'group A'. The assay can be described thus: growth inhibition of control SK(-) GAS strain, dose response, counter-screen for streptokinase expression inhibitor project, luminescence, kanamycin, BacTiterGlo, confirmation (AID 1900). Format: functional, organism-based.
Assay [14] is described as follows: NIH-3T3 fibroblast cytotoxicity, dose response, cytotoxicity control, cell-based, fluorescence, Alamar Blue, secondary assay (AID 2327).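 Note: NIH-3T3 mouse fibroblasts cultured with fluconazole at 8 µg/mL.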 The class given is functional. Background: The colour change of resazurin is a common sign of viable cells or microbes.
Assay [15] relates to HEK293. In words: NOD2 signaling inhibitors in MDP-stimulated cells, cell-based, uHTS, luminescence (AID 2001). The class given is functional. The conditions noted are these: Homo sapiens.
Assay [16] has as its target T1, Kappa-type opioid receptor. The class given is functional. This is another data set of the same source.
For assay [17], the system named is HEK293. The assay can be described thus: cells. The conditions noted are these: Homo sapiens. Format: functional, cell-based. This is another data set of the same source.
Assay [18] is described as follows: C. albicans growth with fluconazole, confirmation, fluorescence, retest (AID 2467). Format: functional, cell-based.
Assay [19] can be described thus: miR-122 activators in hepatoma reporter cells, dose response, cell-based, Huh7 psiCHECK-miR122, Renilla luciferase, cherry-picked (AID 651956).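 Note: huh7 hepatoma cells stably carrying a psiCHECK-2 miR-122 sensor plasmid; renilla luciferase signal reporting endogenous miR-122 activity after 48 h compound exposure.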 Format: functional.
A short description of assay [20]: HEK293T cytotoxicity, dose response, cytotoxicity control for miR-122 modulator project, cell-based, inhibitor set, cherry-pick, set 2 (AID 720697). The class given is functional.
Assay [21] in a line: insulin promoter down-regulators in MIN6 cells, imaging, high-content screening, mouse beta cells (AID 1628). The class given is functional.
A short description of assay [22]: cytotoxicity in MIN6 insulinoma cells, dose response, cytotoxicity control, cell-based, mouse insulinoma (AID 2122).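 Note: confirmatory high-throughput counterscreen run to flag cytotoxic compounds; mouse MIN-6 beta cells carrying an insulin promoter eGFP reporter.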 The class given is functional.
Assay [23] has as its target T3, COUP transcription factor 2 (Homo sapiens, UniProt P24468).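 Note: HEK293 cells transiently cotransfected with COUP-TFII expression vector and reporter; luciferase reporter luminescence driven by COUP-TFII from the pX2-168 reporter plasmid.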
T3 sequence (P24468 whole entry): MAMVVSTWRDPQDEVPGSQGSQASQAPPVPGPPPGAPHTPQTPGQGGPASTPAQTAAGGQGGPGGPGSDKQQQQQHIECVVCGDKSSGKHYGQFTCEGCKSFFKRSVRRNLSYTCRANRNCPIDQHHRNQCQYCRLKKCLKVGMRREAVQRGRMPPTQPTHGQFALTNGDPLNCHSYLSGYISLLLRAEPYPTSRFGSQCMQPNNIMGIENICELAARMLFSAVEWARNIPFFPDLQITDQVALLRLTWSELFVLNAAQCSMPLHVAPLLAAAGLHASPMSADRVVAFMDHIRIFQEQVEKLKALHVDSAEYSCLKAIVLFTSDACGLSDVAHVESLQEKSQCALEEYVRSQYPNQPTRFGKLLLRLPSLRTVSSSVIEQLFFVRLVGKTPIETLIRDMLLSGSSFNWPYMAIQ
In words: Luminescence-based cell-based high throughput dose response assay to identify inhibitors of COUP-TFII (NR2F2). The class given is functional.

Assay [24] can be described thus: cytotoxicity in HEK-293T cells, dose response, cytotoxicity control for TCR NF-kB inhibitor project, luminescence, T-cell screen hits (AID 489026).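 Note: cells exposed to compound about 14 hours before the viability readout.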 The class given is functional, cell-based.
Another assay deals with Escherichia coli. The assay can be described thus: microbe, parasite or virus in culture.
Assay [25] has as its target DNA dC->dU-editing enzyme APOBEC-3G (Homo sapiens, UniProt Q9HC16). Format: functional.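 Note: Dose-response counterscreen measuring inhibition of APOBEC3G DNA deaminase activity, run while confirming APOBEC3A inhibitors.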
Assay [26] addresses T4, Zinc finger protein mex-5 (Caenorhabditis elegans, UniProt Q9XUB2).
T4 sequence (Q9XUB2 whole entry): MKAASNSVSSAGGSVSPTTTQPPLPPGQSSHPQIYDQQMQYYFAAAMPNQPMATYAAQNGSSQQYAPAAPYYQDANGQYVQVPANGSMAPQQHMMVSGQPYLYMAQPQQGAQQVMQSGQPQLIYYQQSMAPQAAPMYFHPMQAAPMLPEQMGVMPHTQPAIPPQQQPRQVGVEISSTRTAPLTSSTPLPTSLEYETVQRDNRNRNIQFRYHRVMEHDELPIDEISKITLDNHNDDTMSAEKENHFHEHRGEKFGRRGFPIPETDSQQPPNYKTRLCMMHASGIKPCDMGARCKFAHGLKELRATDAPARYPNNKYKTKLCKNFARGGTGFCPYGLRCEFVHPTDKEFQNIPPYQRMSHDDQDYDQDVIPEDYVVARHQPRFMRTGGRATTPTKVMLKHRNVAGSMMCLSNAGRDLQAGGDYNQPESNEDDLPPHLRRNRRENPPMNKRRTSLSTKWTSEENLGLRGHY
In words: MEX-5/TCR-2 RNA interaction inhibitors, dose response, biochemical, C. elegans, fluorescence polarization (AID 1960).

For assay [27], the target named is SWI/SNF-related matrix-associated actin-dependent regulator of chromatin subfamily A member 2 (Homo sapiens, UniProt P51531). In words: Luminescence-based cell-based high throughput dose response assay to identify activators of the function of SWI/SNF related, matrix associated, actin dependent regulator of chromatin, subfamily a, member 2 (SMARCA2, BRM). Format: functional.

Assay [28] has as its target DNA dC->dU-editing enzyme APOBEC-3A (Homo sapiens, UniProt P31941). In words: Dose Response confirmation of small molecule APOBEC3A DNA Deaminase Inhibitors via a fluorescence-based single-stranded DNA deaminase assay. [Related pubchem assays (depositor defined):AID493011, AID493024]. The class given is functional.
A short description of assay [29]: Counterscreen for activators of the function of SWI/SNF related, matrix associated, actin dependent regulator of chromatin, subfamily a, member 2 (SMARCA2, BRM): Luminescence-based cell-based high throughput dose response assay to identify non-selective compounds using the VP16 reporter assay. The class given is functional.
Assay [30] has as its target T5, RNA-binding protein pos-1 (Caenorhabditis elegans, UniProt G5EF15).
T5 sequence (G5EF15 whole entry): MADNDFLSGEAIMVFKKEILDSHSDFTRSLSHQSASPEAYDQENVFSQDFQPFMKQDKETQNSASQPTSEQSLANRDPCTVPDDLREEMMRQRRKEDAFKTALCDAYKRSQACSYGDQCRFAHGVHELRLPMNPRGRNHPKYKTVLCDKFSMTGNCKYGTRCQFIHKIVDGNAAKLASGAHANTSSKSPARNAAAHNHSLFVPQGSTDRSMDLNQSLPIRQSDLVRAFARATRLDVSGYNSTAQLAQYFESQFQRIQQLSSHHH
The assay can be described thus: inhibitors of POS-1/mex-3 RNA binding, dose response, biochemical, fluorescence polarization (AID 1964).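 Note: purified POS-1 fused to maltose binding protein made in E. coli; potency of compounds blocking POS-1 binding to fluorescent RNA.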 For orientation: Polarisation of emitted light reports the rotation of a fluorescent probe.

The structures appear in SMILES notation. Calls of active or inactive are those of the source. Some results are limits rather than exact numbers.

Chain of ATP-dependent molecular chaperone HSP82 (C4YTQ8 whole entry): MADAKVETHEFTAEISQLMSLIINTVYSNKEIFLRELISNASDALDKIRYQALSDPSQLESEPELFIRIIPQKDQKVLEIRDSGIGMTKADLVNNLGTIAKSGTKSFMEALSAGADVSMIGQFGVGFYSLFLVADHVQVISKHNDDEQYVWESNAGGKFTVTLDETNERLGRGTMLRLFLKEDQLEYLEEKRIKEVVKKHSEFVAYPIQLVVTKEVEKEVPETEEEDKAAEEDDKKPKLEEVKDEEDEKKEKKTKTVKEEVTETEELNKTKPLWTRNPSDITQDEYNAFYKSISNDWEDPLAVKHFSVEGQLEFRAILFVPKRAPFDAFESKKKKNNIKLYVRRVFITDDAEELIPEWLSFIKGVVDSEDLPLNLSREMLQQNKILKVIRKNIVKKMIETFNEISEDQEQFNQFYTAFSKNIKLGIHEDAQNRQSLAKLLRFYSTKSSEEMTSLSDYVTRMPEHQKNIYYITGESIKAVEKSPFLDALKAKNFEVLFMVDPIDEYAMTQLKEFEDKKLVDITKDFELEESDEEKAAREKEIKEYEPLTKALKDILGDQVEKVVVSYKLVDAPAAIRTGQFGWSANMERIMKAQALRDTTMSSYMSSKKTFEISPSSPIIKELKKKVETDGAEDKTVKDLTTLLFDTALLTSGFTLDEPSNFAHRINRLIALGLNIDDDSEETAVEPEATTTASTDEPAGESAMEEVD
T1 sequence (P41145 whole entry): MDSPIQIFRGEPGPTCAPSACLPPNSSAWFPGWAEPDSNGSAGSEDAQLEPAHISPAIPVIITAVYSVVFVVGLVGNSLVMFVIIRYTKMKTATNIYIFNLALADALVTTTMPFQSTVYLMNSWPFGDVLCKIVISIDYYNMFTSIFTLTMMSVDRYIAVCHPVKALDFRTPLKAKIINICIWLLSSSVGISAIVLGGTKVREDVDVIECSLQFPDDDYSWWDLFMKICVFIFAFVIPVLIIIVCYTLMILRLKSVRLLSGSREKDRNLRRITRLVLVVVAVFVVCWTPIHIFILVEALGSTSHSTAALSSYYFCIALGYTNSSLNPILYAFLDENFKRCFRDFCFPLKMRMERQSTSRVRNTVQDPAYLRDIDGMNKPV
Chain of DNA dC->dU-editing enzyme APOBEC-3G (Q9HC16 whole entry): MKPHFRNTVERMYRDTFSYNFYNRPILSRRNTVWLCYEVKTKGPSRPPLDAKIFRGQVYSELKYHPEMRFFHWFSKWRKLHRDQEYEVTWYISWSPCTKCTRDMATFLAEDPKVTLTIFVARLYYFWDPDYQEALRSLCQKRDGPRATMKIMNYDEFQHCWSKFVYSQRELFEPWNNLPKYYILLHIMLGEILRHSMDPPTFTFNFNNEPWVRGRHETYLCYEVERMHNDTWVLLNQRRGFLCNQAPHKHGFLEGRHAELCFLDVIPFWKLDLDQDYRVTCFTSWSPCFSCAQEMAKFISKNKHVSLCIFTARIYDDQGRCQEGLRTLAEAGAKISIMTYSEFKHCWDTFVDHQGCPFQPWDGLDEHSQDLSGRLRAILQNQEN
Chain of Nucleotide-binding oligomerization domain-containing protein 2 (Q9HC29 whole entry, the tested form may be a part): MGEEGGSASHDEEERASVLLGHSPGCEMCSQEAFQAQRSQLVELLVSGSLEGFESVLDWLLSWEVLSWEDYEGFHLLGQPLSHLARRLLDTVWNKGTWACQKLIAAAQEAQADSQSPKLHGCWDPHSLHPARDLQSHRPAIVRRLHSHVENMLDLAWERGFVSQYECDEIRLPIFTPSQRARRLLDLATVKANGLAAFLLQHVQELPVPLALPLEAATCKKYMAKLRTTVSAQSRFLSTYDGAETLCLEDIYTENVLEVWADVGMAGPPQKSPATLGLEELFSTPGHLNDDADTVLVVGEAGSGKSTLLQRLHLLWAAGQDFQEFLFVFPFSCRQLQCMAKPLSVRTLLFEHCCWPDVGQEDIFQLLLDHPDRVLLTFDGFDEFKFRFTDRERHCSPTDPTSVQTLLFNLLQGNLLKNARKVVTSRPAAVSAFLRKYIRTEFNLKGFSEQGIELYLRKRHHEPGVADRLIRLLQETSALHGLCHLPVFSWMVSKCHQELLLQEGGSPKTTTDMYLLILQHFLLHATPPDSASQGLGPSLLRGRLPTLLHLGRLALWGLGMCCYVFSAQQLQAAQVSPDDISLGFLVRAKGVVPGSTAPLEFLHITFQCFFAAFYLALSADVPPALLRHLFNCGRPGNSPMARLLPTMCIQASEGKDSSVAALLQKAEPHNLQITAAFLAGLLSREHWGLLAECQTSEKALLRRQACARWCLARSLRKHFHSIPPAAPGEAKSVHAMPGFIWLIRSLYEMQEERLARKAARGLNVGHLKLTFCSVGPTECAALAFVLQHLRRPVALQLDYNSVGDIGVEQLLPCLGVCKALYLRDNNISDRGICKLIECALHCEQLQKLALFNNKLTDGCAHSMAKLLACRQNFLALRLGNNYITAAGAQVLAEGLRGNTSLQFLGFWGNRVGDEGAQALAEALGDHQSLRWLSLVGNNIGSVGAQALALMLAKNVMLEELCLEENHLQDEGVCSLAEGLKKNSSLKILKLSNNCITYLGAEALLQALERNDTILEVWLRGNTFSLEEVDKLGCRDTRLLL
Chain of SWI/SNF-related matrix-associated actin-dependent regulator of chromatin subfamily A member 2 (P51531 whole entry): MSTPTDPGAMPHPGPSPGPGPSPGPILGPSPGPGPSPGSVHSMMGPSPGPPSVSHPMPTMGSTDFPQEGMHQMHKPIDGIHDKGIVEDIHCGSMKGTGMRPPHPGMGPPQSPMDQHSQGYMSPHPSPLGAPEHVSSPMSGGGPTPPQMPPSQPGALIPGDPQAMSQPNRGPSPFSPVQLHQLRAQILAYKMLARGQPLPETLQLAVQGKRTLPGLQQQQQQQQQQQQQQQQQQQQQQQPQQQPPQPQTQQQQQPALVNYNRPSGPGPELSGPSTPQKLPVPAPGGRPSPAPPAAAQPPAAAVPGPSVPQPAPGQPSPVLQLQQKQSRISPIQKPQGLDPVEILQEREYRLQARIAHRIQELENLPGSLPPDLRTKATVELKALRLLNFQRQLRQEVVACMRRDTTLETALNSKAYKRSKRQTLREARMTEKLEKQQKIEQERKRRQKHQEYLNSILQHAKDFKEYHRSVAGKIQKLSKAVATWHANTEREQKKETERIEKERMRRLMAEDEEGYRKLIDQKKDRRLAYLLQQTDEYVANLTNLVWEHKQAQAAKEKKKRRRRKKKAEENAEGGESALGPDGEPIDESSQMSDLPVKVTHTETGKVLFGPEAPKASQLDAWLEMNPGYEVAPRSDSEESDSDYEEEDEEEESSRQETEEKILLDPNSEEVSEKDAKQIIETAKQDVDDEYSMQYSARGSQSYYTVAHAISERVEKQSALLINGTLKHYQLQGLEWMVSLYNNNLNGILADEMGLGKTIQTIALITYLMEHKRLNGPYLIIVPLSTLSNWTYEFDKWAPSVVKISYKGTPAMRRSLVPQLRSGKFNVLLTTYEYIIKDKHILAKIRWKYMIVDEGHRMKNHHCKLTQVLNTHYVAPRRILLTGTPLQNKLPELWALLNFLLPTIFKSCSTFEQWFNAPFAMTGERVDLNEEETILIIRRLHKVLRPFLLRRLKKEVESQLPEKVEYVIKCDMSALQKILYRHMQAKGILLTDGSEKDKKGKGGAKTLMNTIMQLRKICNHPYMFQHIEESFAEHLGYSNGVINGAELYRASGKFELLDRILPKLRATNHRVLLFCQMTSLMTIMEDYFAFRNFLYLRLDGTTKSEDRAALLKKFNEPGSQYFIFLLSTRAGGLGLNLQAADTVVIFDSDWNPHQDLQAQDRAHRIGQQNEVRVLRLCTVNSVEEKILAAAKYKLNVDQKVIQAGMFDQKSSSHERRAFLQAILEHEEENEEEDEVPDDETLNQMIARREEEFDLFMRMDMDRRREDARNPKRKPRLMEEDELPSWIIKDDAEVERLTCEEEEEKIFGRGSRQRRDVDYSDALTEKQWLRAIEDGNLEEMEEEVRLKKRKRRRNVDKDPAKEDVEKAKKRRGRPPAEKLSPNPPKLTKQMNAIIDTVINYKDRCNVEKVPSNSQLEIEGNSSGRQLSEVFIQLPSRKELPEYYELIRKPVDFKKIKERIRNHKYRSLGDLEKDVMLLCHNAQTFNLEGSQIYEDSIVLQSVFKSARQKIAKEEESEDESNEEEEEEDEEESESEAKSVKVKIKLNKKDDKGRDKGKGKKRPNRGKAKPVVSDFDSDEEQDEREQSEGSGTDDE
Chain of DNA dC->dU-editing enzyme APOBEC-3A (P31941 whole entry): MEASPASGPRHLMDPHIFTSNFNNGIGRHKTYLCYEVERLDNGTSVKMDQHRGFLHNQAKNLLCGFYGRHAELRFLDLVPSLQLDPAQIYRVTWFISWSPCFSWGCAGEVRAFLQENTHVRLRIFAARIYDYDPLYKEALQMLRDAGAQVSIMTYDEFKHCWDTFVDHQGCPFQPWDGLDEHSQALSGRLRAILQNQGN

For orientation: IC50 means the concentration needed to halve the response being measured. By AC50 is commonly meant the concentration at which the activity in the assay is half-maximal. One may read the EC50 as the concentration giving half of the maximal effect. For the compound `COc1cccc(N=Nc2ccc3cccnc3c2O)c1`, the half-inhibitory concentration (IC50) in assay [1] is over 32 µM; in the assay on HEK293 [2], > 20 µM (inactive); in the assay with HEK293 [4], > 20 µM (inactive); in the assay with HEK293 [15] it was 3.15 µM (inactive); in assay [16] it was 5.92 µM (active); in the assay with HEK293 [17], 5.21 µM (active). Further, the concentration at half-maximal activity (AC50) in the assay with INS1 is 2.26 µM (active); in [8], 5.71 µM (active). The EC50 in assay [3] is 10.5 µM (active); at Beta-galactosidase, 22 µM (active); in [5], > 180 µM (inactive); in the assay with BJ [6], 6.69 µM (inconclusive); in assay [7] it was > 20 µM (inactive); with BJ [9], 3.73 µM (inconclusive). Besides, the EC50 with HEK293 [10] is > 20 µM (inactive); in the assay with Streptococcus, 2.53 µM (active); with BJ [11], 16.9 µM (inconclusive); in assay [12], 4.9 µM (active); in assay [13], 0.068 µM (active); in [14], 87.8 µM (active). Also, the EC50 in [18] was 0.619 µM (active).
On to `COc1cc(-c2nnc3sc(C4CCCCC4)nn23)cc(OC)c1OC`, for which the results for the AC50 in assay [19] and in assay [20] were 55.5 µM (active) and 1.08 µM (active), respectively. Further, the concentration for half-maximal inhibition (IC50) in assay [21] was 0.981 µM (active); in [22], 9.75 µM (active).
As for `CCCCn1c2c(c(=N)c3c1CCC3)CCC2`, the IC50 is 19.1 µM (inactive) in [23], > 80 µM (inactive) in assay [24], 1.47 µM (active) in assay [21] and 1.97 µM (active) in [22].
With `COCCn1c(-c2cccc([N+](=O)[O-])c2)nc2c1c(=O)[nH]c(=O)n2Cc1ccccc1`, the AC50 with Escherichia coli is > 380 µM (inactive).
For `CCSc1nnc(-c2ccc(C)cc2)c2ccccc12`, the concentration for a half-maximal effect (EC50) was 24.7 µM (active) in assay [5], 62.4 µM (active) in assay [12], 17.2 µM (active) in [14] and 0.305 µM (active) in assay [18].
Consider `Cc1ccc(N=Nc2[nH]c3ccccc3c2O)cc1`, for which the values for the IC50 in assay [25] and in assay [28] were 7.69 µM (active) and 4.8 µM (active), respectively. For the same compound, the EC50 in assay [26] is 25.7 µM (inconclusive); in assay [27], > 91.1 µM (inactive); in [29], > 91.1 µM (inactive); in assay [30] it was 16 µM (active).
Consider `Cc1nnc(C)c2c(C)n(C(C)c3ccccc3)c(C)c12` (stereo not drawn), for which the IC50 in [21] is 2.5 µM (active); in [22] it was 2.6 µM (active).
On to `CCO/C(O)=C1\C(C)=NC(=S)NC1c1cc(C)sc1C` (stereo not drawn), for which the concentration at half-maximal activity (AC50) with Escherichia coli was 147 µM (active).

Source of the values: ChEMBL document CHEMBL1201862, “PubChem BioAssay data set” (2004).
